Measured values reported in patent US10149876B2, “Tripterygium wilfordii extracts to overcome chemotherapy resistance” (WESTERN UNIVERSITY OF HEALTH SCIENCES, priority 2012, dated 2018).
“And” between values parts separate entries of the source, which are not always exact repeats. Equal values may be shown once. Read-outs that look alike come from different tables or passages of the source.

Tested on: PC3-TxR cells
Test: SRB cell viability assay, docetaxel-resistant PC3-TxR cells
Conditions: Homo sapiens
Experimental: The CE is expressed as: CE=IC50D/IC50E+D. IC50D is the IC50 of the chemotherapeutic drug against which an test extract (or other compound suspected of having a CE) is evaluated. IC50E+D is the IC50 of the combination of the test extract and chemotherapeutic drug. The CE of a test extract or compound can vary depending on the type of cell and the specific chemotherapeutic or class or combination of therapeutics that are being evaluated.
The variance between those concentrations can be quantitated by calculating the Chemosensitizing Utility Index (CUI) value for a test extract or compound. The CUI is expressed as: CUI=CE×(IC50E/ConE). […] ConE is the concentration of an extract or compound that is required to produce desirable CE.
CE and CUI values were obtained individually for the aqueous, ethanol, and chloroform extracts that are described above. […] In the Examples, the ethanol, is referred to as Lei Gong Teng extract (LGT-E).
PC3-TxR cells were plated into sterile, F-bottom Cellstar® 96 well cell culture plates with lids (Cat #655180, Purchased from Greiner Bio-one, Monroe, N.C.) by placing into each well, 100 μl of medium containing 3000 cells in RPMI 1640 supplemented with 10% fetal bovine serum (Thermo Scientific, Logan, Utah) and a solution of penicillin (100 U/ml) and streptomycin (100 μg/ml) (Life Technologies Grand Island, N.Y.). The cells were at passage 52 at the time of plating. Triplicate wells were assigned to each experimental condition tested, and a 24 hour recovery period for the cells following the seeding of the wells was allowed. During the recovery period, the cells were incubated at 37° C. and 5% CO2.
The LGT-E was prepared by adding an appropriate amount of LGT-E powder to DMSO to form a 500 mg/ml stock solution. The stock solution was alternately vortexed and sonicated until the LGT-E powder went into solution. The stock solution was diluted in RPMI 1640 medium (Mediatech, Manassas, Va., or Life Technologies Grand Island, NY) to reach the desired concentrations of LGT-E (e.g., 12, 25, or 60 μg/ml).
Pretreatment of the cells with LGT-E was carried out by aspirating the media from the wells, followed by adding 50 μl of LGT-E solution containing concentrations of either 12 or 25 μg/ml of LGT-E solution and incubation of the cells for two hours under conditions of 37° C. and 5% CO2.
Media was aspirated from each well, and replaced with a 10% solution of cold trichloroacetic acid (TCA) (Cat #: T6399, purchased from Sigma-Aldrich), and incubated for one hour at 4° C. After the TCA incubation, the TCA solution was aspirated, and the cells were washed five times with tap water. After removing the last wash, the plates were left with lids off at room temperature until the surfaces were dry, which took one to two hours. Then 50 μl of a 0.4% solution of sul-forhodamine B (SRB) sodium salt (Cat #: S9012, purchased from Sigma-Aldrich) was added to each well and the plates were incubated at room temperature for 20 to 30 minutes. Afterwards, the wells were washed five times with a 1% acetic acid solution in 10 mM TRIS base (Cat#: 161-0719, purchased from Bio-Rad Laboratories, Hercules, Calif.). The plates were subsequently left to dry for several hours or overnight. SRB that remained in the dried wells was solubilized by adding 100 μl of SRB solubilization solution (10 mM TRIS base) to each well, and placing the plates either on a gently-moving shaker or letting the plates remain stationary at room temperature until the SRB dissolves, which takes about five to ten minutes. The amount of SRB in each well, which correlated directly to the number of living cells at fixation, was determined spectrophotometrically at an absorbance of 565 nm by a microplate reader.

With `CC(=O)O[C@@]12CO[C@@H]1C[C@H](O)[C@@]1(C)C(=O)[C@H](O)C3=C(C)[C@@H](OC(=O)[C@H](O)[C@@H](NC(=O)OC(C)(C)C)c4ccccc4)C[C@@](O)([C@@H](OC(=O)c4ccccc4)[C@H]21)C3(C)C` [Docetaxel, docetaxel] the viability at 1 pM (read-out: % viable, PC3-TxR, LGT-E 12 μg/ml pre-treatment, docetaxel 0.001 nM 72 h) was 100%, the viability at 0.0001 µM (read-out: % viable, PC3-TxR, LGT-E 12 μg/ml pre-treatment, docetaxel 0.1 nM 72 h) was 105% and the viability at 0.000333 µM (read-out: % viable, PC3-TxR, LGT-E 12 μg/ml pre-treatment, docetaxel 0.333 nM 72 h) was 103%. It also gave a viability at 0.001 µM (read-out: % viable, PC3-TxR, LGT-E 12 μg/ml pre-treatment, docetaxel 1 nM 72 h) of 97.8%, a viability at 0.00333 µM (read-out: % viable, PC3-TxR, LGT-E 12 μg/ml pre-treatment, docetaxel 3.33 nM 72 h) of 62.4% and a viability at 0.01 µM (read-out: % viable, PC3-TxR, LGT-E 12 μg/ml pre-treatment, docetaxel 10 nM 72 h) of 21.2%. For the same compound, the viability at 0.0333 µM (read-out: % viable, PC3-TxR, LGT-E 12 μg/ml pre-treatment, docetaxel 33.3 nM 72 h) was 7%, the viability at 0.1 µM (read-out: % viable, PC3-TxR, LGT-E 12 μg/ml pre-treatment, docetaxel 100 nM 72 h) was 4.1% and the viability at 1 pM (read-out: % viable, PC3-TxR, LGT-E 25 μg/ml pre-treatment, docetaxel 0.001 nM 72 h) was 100%. The viability at 0.0001 µM (read-out: % viable, PC3-TxR, LGT-E 25 μg/ml pre-treatment, docetaxel 0.1 nM 72 h) was 99.9%, the viability at 0.000333 µM (read-out: % viable, PC3-TxR, LGT-E 25 μg/ml pre-treatment, docetaxel 0.333 nM 72 h) was 99.1% and the viability at 0.001 µM (read-out: % viable, PC3-TxR, LGT-E 25 μg/ml pre-treatment, docetaxel 1 nM 72 h) was 82.5%. For the same compound, the viability at 0.00333 µM (read-out: % viable, PC3-TxR, LGT-E 25 μg/ml pre-treatment, docetaxel 3.33 nM 72 h) was 34.6%, the viability at 0.01 µM (read-out: % viable, PC3-TxR, LGT-E 25 μg/ml pre-treatment, docetaxel 10 nM 72 h) was 9.4% and the viability at 0.0333 µM (read-out: % viable, PC3-TxR, LGT-E 25 μg/ml pre-treatment, docetaxel 33.3 nM 72 h) was 4.9%. The viability at 0.1 µM (read-out: % viable, PC3-TxR, LGT-E 25 μg/ml pre-treatment, docetaxel 100 nM 72 h) was 4.7%, the viability at 1 pM (read-out: % viable, PC3-TxR, no LGT-E pre-treatment (Table 2), docetaxel 0.001 nM 72 h) was 100% and the viability at 0.0001 µM (read-out: % viable, PC3-TxR, no LGT-E pre-treatment (Table 2), docetaxel 0.1 nM 72 h) was 98.5%. For the same compound, the viability at 0.000333 µM (read-out: % viable, PC3-TxR, no LGT-E pre-treatment (Table 2), docetaxel 0.333 nM 72 h) was 100%, the viability at 0.001 µM (read-out: % viable, PC3-TxR, no LGT-E pre-treatment (Table 2), docetaxel 1 nM 72 h) was 105% and the viability at 0.01 µM (read-out: % viable, PC3-TxR, no LGT-E pre-treatment (Table 2), docetaxel 10 nM 72 h) was 77%. It also gave a viability at 0.0333 µM (read-out: % viable, PC3-TxR, no LGT-E pre-treatment (Table 2), docetaxel 33.3 nM 72 h) of 29.7%, a viability at 0.1 µM (read-out: % viable, PC3-TxR, no LGT-E pre-treatment (Table 2), docetaxel 100 nM 72 h) of 11.3% and a viability at 1 pM (read-out: % viable, PC3-TxR, no LGT-E pre-treatment (Table 4), docetaxel 0.001 nM 72 h) of 100%. The viability at 0.0001 µM (read-out: % viable, PC3-TxR, no LGT-E pre-treatment (Table 4), docetaxel 0.1 nM 72 h) was 98.7%, the viability at 0.000333 µM (read-out: % viable, PC3-TxR, no LGT-E pre-treatment (Table 4), docetaxel 0.333 nM 72 h) was 99.9% and the viability at 0.001 µM (read-out: % viable, PC3-TxR, no LGT-E pre-treatment (Table 4), docetaxel 1 nM 72 h) was 99.2%. The viability at 0.00333 µM (read-out: % viable, PC3-TxR, no LGT-E pre-treatment (Table 4), docetaxel 3.33 nM 72 h) was 98.5%, the viability at 0.01 µM (read-out: % viable, PC3-TxR, no LGT-E pre-treatment (Table 4), docetaxel 10 nM 72 h) was 76.7% and the viability at 0.0333 µM (read-out: % viable, PC3-TxR, no LGT-E pre-treatment (Table 4), docetaxel 33.3 nM 72 h) was 32.9%. The viability at 0.1 µM (read-out: % viable, PC3-TxR, no LGT-E pre-treatment (Table 4), docetaxel 100 nM 72 h) was 13.4%, the viability at 1 pM (read-out: % viable, PC3-TxR, no LGT-E pre-treatment (Table 11, Example 4), docetaxel 0.001 nM 72 h) was 100% and the viability at 0.0001 µM (read-out: % viable, PC3-TxR, no LGT-E pre-treatment (Table 11, Example 4), docetaxel 0.1 nM 72 h) was 98.7%. The viability at 0.000333 µM (read-out: % viable, PC3-TxR, no LGT-E pre-treatment (Table 11, Example 4), docetaxel 0.333 nM 72 h) was 99.9%, the viability at 0.001 µM (read-out: % viable, PC3-TxR, no LGT-E pre-treatment (Table 11, Example 4), docetaxel 1 nM 72 h) was 99.2% and the viability at 0.00333 µM (read-out: % viable, PC3-TxR, no LGT-E pre-treatment (Table 11, Example 4), docetaxel 3.33 nM 72 h) was 98.5%. It also gave a viability at 0.01 µM (read-out: % viable, PC3-TxR, no LGT-E pre-treatment (Table 11, Example 4), docetaxel 10 nM 72 h) of 76.7%, a viability at 0.0333 µM (read-out: % viable, PC3-TxR, no LGT-E pre-treatment (Table 11, Example 4), docetaxel 33.3 nM 72 h) of 32.9% and a viability at 0.1 µM (read-out: % viable, PC3-TxR, no LGT-E pre-treatment (Table 11, Example 4), docetaxel 100 nM 72 h) of 13.4%. The IC50 (read-out: IC50 of drug when cells pre-treated with Chemosensitizing Agent before drug treatment, docetaxel, LGT-E 25 μg/ml pre-treatment) was 2.19 nM and 0.00177 µg/mL and the IC50 (read-out: IC50 of drug when cells treated with drug only, docetaxel, line of LGT-E 25 μg/ml) was 18.3 nM and 0.0148 µg/mL.
